Measurements: patent publication US6960430B2, “Screening methods for compounds useful in the regulation of cell proliferation” (priority 1999, dated 2005)
Entries after “also recorded” stand apart in the source; their conditions may differ.

Legend:
[1] = tested on: tetracycline-regulated transactivator protein tTA; assay: Hsp72 expression from adenovirus vector controlled by tetracycline-regulated transactivator in Rat-1 cells, immunoblot; format: cell-based; conditions: 20 nM
Text: Recombinant adenovirus vector expressing Hsp72 (ADTR5Hsp72-GFP, curtesy of Dr. Mosser, Biotechnology Research Institute, Montreal) was constructed by cloning a dicistronic transcription unit encoding Hsp72 and Aequorea Victoria green fluorescent protein gene, separated by the encephalomyocarditis virus internal ribosome entry site from pTR-DC/Hsp70-GFP (Mosser et al., 1997a, Mol. Cell Biol, 17: 5317-5327; Mosser et al., 1997b, Biotechniques 22: 150-161) into an adenovirus transfer vector. Expression of this transcription unit is controlled by the tetracycline-regulated transactivator protein tTA (Mosser et al., 1997b, Biotechniques 22: 150-161) which we expressed from a separate recombinant adenovirus. Recombinant adenoviruses were generated by standard techniques as detailed by (Jani et al., 1997, J. Virol. Methods 64: 111-124). Viruses were used at stock concentration of 10^10 pfu/ml. […] Two-ml cell cultures grown in liquid medium in 35 mm dishes were infected in the presence or the absence of anhydrotetracycline with 3·10^7 pfu of each virus, sufficient for infection of almost 100% cells, and additional 10^7 pfu of each virus was added on days three and seven. After 24 hours incubation with viruses, cells were washed with PBS and placed in fresh media with or without anhydrotetracycline. […]

JNK phosphatase(s) [2] = assay: JNK inactivation (dephosphorylation) after heat shock in Hsp72-expressing MVH cells, immunoblot with antibody to phospho-JNK; format: cell-based, rat; conditions: for JNK inactivation / JNK dephosphorylation in heat-shocked MVH cells: 0.5 mM added 1 hr after heat shock (45° C., 50 min), recovery at 37° C., JNK1 by phospho-JNK antibody; for JNK activity, drug alone: unstressed cells, vanadate alone
Text: Another assay for JNK activity allowed us to measure separately activity of two major isoforms (46 kDa JNK1 and 54 kDa JNK2) using JNK antibody specific to activated (phosphorylated) form of JNK (Promega, Wis.). For immunoblot analysis samples were subjected to Western immunoblotting. Secondary antibodies conjugated with peroxidase were visualized with ECL substrates (Amersham, Arlington Heights, Ill.) and resulting films were quantified by densitometry. Measurement of JNK phosphatase activity. In vivo INK phosphatase activity was measured as described earlier (Meriin, A. B., et al., 1999, Mol. Cell Biol. (In press)). […] […] The rate of JNK dephosphorylation was assessed under these conditions by immunoblotting with antibody which recognizes the activated (phosphorylated) form of JNK specifically.

MVH cells = assay: Apoptosis by Hoechst-33342 staining in MVH cells (Rat-1 variant constitutively expressing Hsp72); format: cell-based; conditions: heat shock 45° C., 50 min, 0.5 mM, apoptosis assessed 7 hr after treatment
Protocol: The level of apoptosis was measured by fluorescent microscopy using Hoechst-33342 DNA-specific dye (10 μM). Shrinked cells with condensed or fragmented nuclei were counted as apoptotic. Cells were washed twice with PBS on a dish, aspirated and lysed by thoroughly scraping with a plastic scraper in 200 μL lysis buffer per a 35 mm dish (40 mM HEPES, pH 7.5; 50 mM KCl; […]; 2 mM DTT, 1 mM Na3VO4; 50 mM β-glycerophosphate; 50 mM NaF; 5 mM EDTA; 5 mM EGTA; 1 mM PMSF; 1 mM benzamedine; 5 μg/ml of each: leupeptine, pepstatine A, aprotenin). The lysates were clarified by centrifugation in a microcentrifuge at 15,000 rpm for 5 min. Total protein concentration was measured in the supernatants after which they were diluted with the lysis buffer to achieve equivalent concentration in all samples. All procedures were performed at 4° C.

JNK phosphatase(s) [3] = conditions: various cell lines; cited from earlier work

| Compound | Hsp72 expression after infection with both adenoviruses [1] | JNK inactivation / JNK dephosphorylation in heat-shocked MVH cells (JNK phosphatase(s) [2]) | JNK inactivation / JNK dephosphorylation in heat-shocked MVH cells (JNK phosphatase(s) [2]; listed as Ortho-vanadate) | JNK activity, drug alone (JNK phosphatase(s) [2]; listed as Ortho-vanadate) | JNK activity, drug alone (JNK phosphatase(s) [2]; listed as vanadate) | heat-induced apoptosis of MVH cells (thermoresistance, anti-apoptotic effect of Hsp72) (MVH cells; listed as Ortho-vanadate) | heat-induced apoptosis of MVH cells (thermoresistance, anti-apoptotic effect of Hsp72) (MVH cells; listed as vanadate) | suppression of JNK phosphatase(s) (JNK phosphatase(s) [3]) |
| --- | --- | --- | --- | --- | --- | --- | --- | --- |
| Cc1c2c(c(O)c3c(O)cccc13)C(=O)[C@]1(O)C(=O)C(C(N)=O)=C(O)[C@@H](N(C)C)[C@@H]1C2 [anhydrotetracycline] | expression of Hsp72 in the absence of tetracycline but not in the presence of 20 nM of anhydrotetracycline | – | – | – | – | – | – | – |
| [O]=[V]([O-])([O-])[O-] [ortho-vanadate] | – | strongly inhibited JNK inactivation | inhibits JNK dephosphorylation | no significant effect on JNK activity | affected neither JNK activity | abolishes thermoresistance | completely reversed anti-apoptotic effect of Hsp72; also recorded: dramatically increased | effectively suppresses JNK phosphatase(s) |
